Reference: patent US20250295627A1 (Leibniz-Institut Fuer Neurobiologie, priority 2022, published 2025)

Experiments:
[1] = test system: TBA2.1 and 5×FAD mice; experiment: Amyloid load (amyloid-β positive puncta) in CA1 after oral Nitarsone; type: in vivo, mouse
Experimental: Animals were anesthetized with ketamine/xylazine (Medistar) and transcardially perfused with 0.9% saline followed by 4% PFA. The brains were post-fixed in 4% PFA in PBS overnight, followed by immersion in 0.5 M sucrose for 24 h and then 1M sucrose for another 1 to 2 days or until the brains were sunken down. The brains were snap-frozen and cut into 35 μm thick coronal cryosections (Leica CM3050S, Leica-Microsystems). The sections were blocked in a buffer (0.3% TX-100, 10% NGS in PBS) for 30 min at RT, and incubated with primary antibodies diluted in the blocking solution, overnight at 4° C. Secondary antibodies were applied for 2 h at RT. Sections were counterstained with DAPI and mounted in Mowiol 4-88 (Merck Chemicals). For the detection of Aβ, the heat-based antigen retrieval method was used. […]
All quantifications were done within the distal CA1 region of the hippocampus. […] CREB and pCREB immunoreactivity of every single nucleus in a 100 μm stretch was measured in arbitrary units of pixel intensity. […] The neuronal loss was quantified based on NeuN staining (the number of neurons/CA1 length). For the quantification of microglia and astrocytes the number of cells based on overlaid DAPI and Iba-1 or GFAP signal was quantified within the rectangular ROI. Aβ plaques were counted in the region where the neuronal loss was quantified.

[2] = estimated life-long consumption of turkey meat; cited from earlier work
[3] = test system: pCREB; experiment: pCREB in primary cortical cultures overexpressing poly(GA) aggregates (ALS model); type: cell-based, rodent; settings: 5 µM nitarsone, 48 hours
[4] = test system: TBA2.1 and 5×FAD mice; experiment: Synaptic density in stratum lacunosum moleculare of CA1 after oral Nitarsone; type: in vivo, mouse
Experimental: Animals were anesthetized with ketamine/xylazine (Medistar) and transcardially perfused with 0.9% saline followed by 4% PFA. The brains were post-fixed in 4% PFA in PBS overnight, followed by immersion in 0.5 M sucrose for 24 h and then 1M sucrose for another 1 to 2 days or until the brains were sunken down. The brains were snap-frozen and cut into 35 μm thick coronal cryosections (Leica CM3050S, Leica-Microsystems). The sections were blocked in a buffer (0.3% TX-100, 10% NGS in PBS) for 30 min at RT, and incubated with primary antibodies diluted in the blocking solution, overnight at 4° C. Secondary antibodies were applied for 2 h at RT. Sections were counterstained with DAPI and mounted in Mowiol 4-88 (Merck Chemicals). For the detection of Aβ, the heat-based antigen retrieval method was used. For anti-Aβ staining, following permeabilization, brain sections were immersed into […] sodium citrate solution (Fluka, pH=9) for 30 min at 80° C. Imaging of nuclear pCREB/CREB immunoreactivities in cryosections was performed using a Leica TCS SP5 system (Leica-Microsystems). Images were acquired sequentially with a HCX ApoL20×/1.0 water objective, optical zoom 4. Sections were imaged with constant laser/detector settings along the z-axis with 400 nm step in a 512×512 pixel format.
. For TBA2.1 mice (both sexes), treatment started at the age of 4 weeks. […]

[5] = test system: pCREB; experiment: pCREB in motor neurons differentiated from hiPSC (ALS model); type: cell-based, human; settings: hiPSC-derived motor neurons, treated at day in vitro 56
[6] = test system: TBA2.1 and 5×FAD mice; experiment: Acute hippocampal slices, CA1-LTP recordings; type: ex vivo, mouse; settings: for basal synaptic transmission: bath application
Experimental: The 350 μm thick hippocampal slices were prepared according to a previously described protocol (Grochowska et al., 2017). Briefly, hippocampal slices were incubated in bubbling 95% 02, 5% CO2 ASCF solution for 2 h at 31+/−1° C. Field excitatory postsynaptic potentials (fEPSPs) were measured in stratum radiatum after stimulation of CA1 Schaffer collateral fibers with ACSF glass capillary microelectrodes (3-5 MΩ). fEPSPs were amplified by Extracellular Amplifier (EXT-02B, npi, Germany) and digitized at a sample frequency of 5 kHz by Digidata 1201 plus AD/Da converter (CED, UK). The strength of stimuli was adjusted to 25-35% of the maximum fEPSP slope values. Single stimuli were applied at 0.0333 Hz and averaged every 5 min. Stable baseline recordings were followed by tetanisation with 3×1 s stimulus trains at 100 Hz with a 10 min inter-train interval.
(§1) . For TBA2.1 mice (both sexes), treatment started at the age of 4 weeks. The animals were group housed and force fed for 4 weeks. […] Treatment in 5×FAD male mice started at the age of 12 weeks. Here, animals were single housed right away and given a choice between voluntary and forced feeding. […] During the course of the 7th week of treatment, animals were either subjected to perfusion to obtain their brains for subsequent immunohistochemistry or they were culled to obtained native brains for electrophysiological recordings.

[7] = test system: TBA2.1 and 5×FAD mice; experiment: Y-maze object recognition short-term memory task; type: in vivo, mouse; settings: 3 h between training and test, versus vehicle
From the text: as §1
Y-maze Object Recognition short-term memory task was performed according to (Creighton et al., 2019). During training session, two identical objects (3D printed rectangle) were placed at the end of arms B and C and the animal was left to explore both objects for 10 min. In order to assess short-term memory, retrieval performance was tested 3 h after training with one of the familiar objects replaced by a novel one (wooden cube). The mice were placed in the arena, and had 5 min to explore both objects. During both sessions the time animals explored the objects was scored, and a discrimination index was calculated, in the same manner as for the novel object recognition test.

In the case of `O=[N+]([O-])c1ccc([As](=O)(O)O)cc1` [Nitarsone, (4-nitrophenyl) arsonic acid], the amyloid load ([1]; 5×FAD mice) is given as “did not detect any effects”, the amyloid load ([1]; TBA2.1 mice) is given as “did not detect any effects” and the “increased lifetime risk of developing cancer” value [2] is given as 0.00031%. For the same compound, the pCREB nuclear immunoreactivity ([3]; control cells (poly (GA)-negative)) was “do not display any change”, the “poly (GA)-induced decrease in pCREB nuclear immunoreactivity” value ([3]; poly-(GA) 175-EGFP-transduced cells) was “completely rescued” and the “synapse loss in the stratum lacunosum moleculare” value ([4]; 5×FAD mice) was “clearly reduced synapse loss”. For the same compound, the “synapse loss in the stratum lacunosum moleculare” value ([4]; TBA2.1 mice) was “clearly reduced synapse loss”, the “impairment of CREB function” value [5] was “rescues the impairment of CREB function” and the basal synaptic transmission ([6]; 5×FAD mice) was “not affected”. The basal synaptic transmission ([6]; TBA2.1 mice) was “not affected”, the “late-phase LTP, fEPSP slope in the last 30 minutes of recordings” value ([6]; slices of Nitarsone-fed 5×FAD mice, postnatal week 19) was “rescued” and the “late-phase LTP, fEPSP slope in the last 30 minutes of recordings” value ([6]; slices of Nitarsone-fed TBA2.1 mice, postnatal week 11) was “rescued”. For the same compound, the “discrimination performance, Y-maze object recognition” value ([7]; 5×FAD mice) was “improved discrimination performance” and the “discrimination performance, Y-maze object recognition” value ([7]; TBA2.1 mice) was “improved discrimination performance”.
